Results from US11072605B2, “Crystalline brexpiprazole” (Hexal Aktiengesellschaft, priority 2017, dated 2021).

Test: Particle size distribution by laser diffraction (Malvern Mastersizer 3000)
Format: physicochemical
Settings: aqueous suspension, after ultrasonification
Method: For the purpose of this invention, particle size distribution (PSD) is determined as the percent volume at each particle size and measured by a laser diffraction method in the context of a circulating aqueous suspension.
A Malvern Mastersizer 3000 laser diffraction analyzer equipped with a Hydro EV measurement cell was used. About 50 mg of sample were filled into a 15 ml glass test tube. The sample was wetted with two drops of Tween 80 and vortexed. Then the thoroughly wetted sample was dispersed in about 7 mL of UHQ-water by vortexing until the particles were dispersed. The suspension was treated for 7 minutes in an ultrasonification bath at RT (Elma S50H). The well dispersed suspension was then measured in water by adding a sample from the center of the test tube containing the well dispersed suspension to a water-filled dispersion unit prefilled with 70 mL of water. The sample in the 70 mL dispersion unit was kept under stirring at 2000 rpm. More sample from the test tube was added, until a targeted obscuration range of 10-25 percent was achieved. The Malvern Mastersizer was operated using the following parameters:
Particle size distribution was measured with a Malvern Mastersizer 3000 laser diffraction analyzer equipped with a Hydro EV measurement cell. About 50 mg of sample were given into a test tube. The sample was wetted with two drops of Tween 80 and dispersed in about 7 ml of water on a Vortexer. The suspension was treated for 7 minutes in a ultrasonification bath (Elma S50H). The well dispersed suspension was afterwards measured in water at a targeted obscuration range of 10-25 percent while circulating the aqueous suspension and stirring the suspension reservoir at 2000 rpm after a waiting period of three minutes. A fraunhofer optical model was utilized to deconvolute the sample scattering patterns to yield the resultant particle size distributions. Analysis model: General purpose/normal sensitivity. Measuring/background time: about 10 sec

| Compound | d(4,3) volume mean diameter | d(10) (volume distribution) | d(90) (volume distribution) | d(50) (volume distribution) [μm] |
| --- | --- | --- | --- | --- |
| O=c1ccc2ccc(OCCCCN3CCN(c4cccc5sccc45)CC3)cc2[nH]1 [(i)] | D(4.3): 19 μm | D(10): 1.5 μm | D(90): 42 μm | – |
| O=c1ccc2ccc(OCCCCN3CCN(c4cccc5sccc45)CC3)cc2[nH]1 [(ii)] | D(4.3): 30 μm | D(10): 1.3 μm | D(90); 79 μm | – |
| O=c1ccc2ccc(OCCCCN3CCN(c4cccc5sccc45)CC3)cc2[nH]1 [Compound I, 7-[4-[4-(1-Benzothiophen-4-yl)piperazin-1-yl]butoxy]quinolin-2(1H)-one, reference compound] | – | 0.8 μm | 10.8 μm | 3 |
